According to PMC4149238, “Systemic delivery of P42 peptide: a new weapon to fight Huntington’s disease” (Acta Neuropathologica Communications, 2014):
Residues, ends and D or L forms follow the SMILES beside them. *: point of attachment. 5TAMRA = CN(C)c1ccc2c(c1)Oc1cc(N(C)C)ccc1C21OC(=O)c2cc(C(=O)*)ccc21

How the values were obtained:
[1] = system: brain of wild-type C57BL/6 J mice; test: Brain targeting after buccal/rectal NP42T (MALDI Imaging Mass Spectrometry); format: in vivo, mouse; settings: NP42T 210 μg, four buccal and four rectal administrations, 3 h, MALDI IMS, two mice
Protocol: For MALDI analysis, wild-type C57BL/6 J mice have been injected either by ICV (2.1 μg), or treated with empty NP, or with NP42T (210 μg) microemulsions. For NP and NP42T, four buccal and four rectal administrations (1 ml/kg) have been performed, spaced by 30 minutes to ensure mucosa internalization. Two mice have been treated for each condition and sacrificed 3 h after the injections.
Tissue preparation and MALDI imaging analysis: Frozen brain sections were cut in 15 μm slices using an HM 550 OVPD cryostat (Fisher Scientific, Illkirch, France), set at −20°C, mounted on ITO coated conductive glass slides and allowed to thaw and desiccate in a vacuum desiccator. Tissue sections were then coated manually with a 10 mg/ml α-cyano-4-hydroxycinnamic acid dissolved in 50% acetonitrile (ACN) and 0.1% trifluoroacetic acid (TFA).
MALDI imaging was performed using the 4800 Plus MALDI TOF/TOF^TM Analyzer (AB Sciex). Image acquisition was achieved using the 4800 imaging tool software (MSI imaging). […]
The two dimensional ion image of the tissue section was analyzed using Tissue View^TM software (Applied Biosystems/MDS analytical technologies). A colour scale representing signal intensity is exported from Tissue View^TM software to provide semi quantitative information.

wild-type mice = test: Tolerability in NP42T-treated wild-type mice; format: in vivo, mouse; settings: week 2 to 11
Protocol: For animal experimentation, a cohort of 30 females was divided into four groups (WT treated with empty NP (n = 5); WT treated with NP42T (n = 8); R6/2 treated with empty NP (n = 8); R6/2 treated with NP42T (n = 9)). Administrations were performed five days a week, at the same time of the day, starting in 2-week-old mice. The treatment was performed until the mice were sacrificed (at week 11). NP42T peptide (600 μg/ml/kg) was administrated twice a day per mucosa, with two buccal injections until the mice were 4 week old, and via rectal and buccal injections for older animals older.

[2] = mice brain soluble extract, 15 μg peptide, incubation 0, 1, 3 and 6 h, MALDI-MS
Text: MALDI MS and MS/MS analysis: Spectra acquisition has been performed using the 4800 Plus MALDI TOF/TOF^TM mass spectrometer (ABSciex) controlled by the 4000 Series Explorer^TM. MS spectra were acquired in a reflector positive mode (mass range: m/z 700–4000, laser intensity set at 50% and 3000 total laser shots per spectrum, MS resolution ≥ 12000–17000). MS/MS precursor was selected manually with an absolute mass window of 1 Da and each MS/MS spectrum is the result of 1000 total laser shots with a laser intensity set at 50% and a MS/MS resolution ≥ 2000–5000. The fragmentation was performed at collision energy of 2 kV and a collision air pressure set at 10^−6 Torr.

[3] = system: GFP-hHtt^171aa-Q136 aggregation; test: polyQ-hHtt aggregation in transfected HeLa cells (microscopy); format: cell-based, human; settings: HeLa cells co-transfected with GFP-hHtt171aa-Q136 and vector expressing Cherry-tagged peptide, vs empty vector
Protocol: (§1) HeLa cells were grown and maintained in DMEM medium (Gibco) supplemented with 10% fetal calf serum and glutamine. HeLa cells were grown in 6 well plates, and pDdest53-GFP-hHtt^171aa-136Q (0.75 μg) was transfected with JetPei reagent (Qbiogene). Equal amounts of pcDNA-Cherry-P42 or control vector were added for each transfection to level the total amount of plasmid DNA. To test the internalization of exogenous peptide, synthesized TAMRA-P42-TAT was added at the same time as pDest53-GFP-hHtt^171aa-Q136 transfection, at different concentrations (0, 0.5, 1, 5, 10 or 20 μM). Cells were incubated with plasmid and peptide for 12 h. Then the medium was washed twice with PBS, the cells trypsinized, and grown on a coverslip with new DMEM medium for 6 h. This step was necessary to eliminate the peptide that crystallizes on the well. Eventually, cells were fixed with 4% paraformaldehyde and immunostained for microscopic analysis. To observe the internalization of the peptide TAMRA-P42-TAT, the signal was amplified by anti-TAMRA immunostaining (1:500- Invitrogen). Nuclei were counterstained with DAPI (4′, 6 diamino-2-phenylindole). The pictures were taken with a confocal laser scanning microscope model LSM780 (Carl Zeiss).

[4] = system: flies expressing hHtt exon1 with expanded polyQ; settings: cited from earlier work
Text: Most research undertaken to find a cure for HD focus on the mutated allele (trying to reduce its expression), or on the polyQ stretch that is responsible for aggregation, but that is also present in other neurodegenerative diseases. Our approach is based on the observation that the ratio between normal and mutant Huntingtin is a crucial factor in the onset and progression of the disease. In a previous work, we confirmed the protective role of wild-type N-terminus Htt. We further screened human hHtt, for peptides able to prevent polyQ-hHtt aggregation i ... || The efficient rescue supported by P42 administration represents one of the best therapeutic effects described so far. Therapeutic research currently targets mutant Htt at transcriptional or post-translational level. The recent works in RNA interference or ASO strategies attempt to reduce the expression of the mutant transcript. Despite recent progress, the limitation of this approach lays in the effects on the wild-type allele and the aggravation of the loss of function effects. Biochemical molecules and intrabodies have also been designed against the protein, in order to target abnorma ...

HeLa cells [5] = test: Internalization of exogenous peptide into HeLa cells; format: cell-based, human; settings: synthetic TAMRA end-labelled peptide in culture medium, anti-TAMRA immunostaining, confocal
Protocol: as §1

HeLa cells [6] = test: MTT test of HeLa cell survival; format: cell-based, human; settings: large excess of peptide, data not shown
[7] = system: brain of wild-type C57BL/6 J mice; test: Brain distribution of TAMRA-P42-TAT after ICV injection; format: in vivo, mouse
Protocol: To test the stability of the peptide in the brain, single intracerebroventricular (ICV) injection of peptides was performed in the right ventricle of C57BL/6 mice as described in [15]. 5 μg or 1 μg of TAMRA-P42-TAT were stereotaxically injected into the right lateral ventricle (coordinates 1 mm right lateral to bregma and 3 mm ventral to the skull surface) of C57BL/6 J mice using a 10 μl Hamilton syringe at a rate of 0.2 μl to 1 μl/min. As a control, saline was injected in the same volume and at the same rate. […]
TAMRA-P42-TAT injected mice were also immunostained with rabbit monoclonal anti-DARPP32 (MAb2306 - Cell Signaling Technology - 1: 1600), secondary detected by Alexa 488 anti-rabbit (1: 2000) to label the striatum, and with mouse monoclonal anti-NeuN (MAB377 – Millipore - 1: 1000), secondary detected by Dye light blue anti-mouse (1: 500), as a neuronal marker.

Compound: CC[C@H](C)[C@H](NC(=O)[C@H](CC(=O)O)NC(=O)[C@H](Cc1c[nH]cn1)NC(=O)CNC(=O)[C@H](C)NC(=O)[C@H](CO)NC(=O)CNC(=O)[C@@H]1CCCN1C(=O)[C@@H](NC(=O)[C@H](CO)NC(=O)[C@@H](NC(=O)CNC(=O)[C@H](CO)NC(=O)[C@H](CO)NC(=O)[C@H](C)NC(=O)[C@H](C)N)C(C)C)[C@@H](C)O)C(=O)N[C@H](C(=O)N[C@H](C(=O)N[C@@H](CCC(=O)O)C(=O)N[C@@H](CCC(N)=O)C(=O)N1CCC[C@H]1C(=O)N[C@@H](CCCNC(=N)N)C(=O)N[C@@H](CO)C(=O)NCC(=O)NCC(=O)N[C@@H](Cc1ccc(O)cc1)C(=O)NCC(=O)N[C@@H](CCCNC(=N)N)C(=O)N[C@@H](CCCCN)C(=O)N[C@@H](CCCCN)C(=O)N[C@@H](CCCNC(=N)N)C(=O)N[C@@H](CCCNC(=N)N)C(=O)N[C@@H](CCC(N)=O)C(=O)N[C@@H](CCCNC(=N)N)C(=O)N[C@@H](CCCNC(=N)N)C(=O)N[C@@H](CCCNC(=N)N)C(=O)O)[C@@H](C)O)[C@@H](C)CC [P42-TAT] (H-AASSGVSTPGSAGHDIITEQPRSGGYGRKKRRQRRR-OH)
- presence in the brain after Aonys administration [1]: able to reach the brain
- toxicity noticed during the study (wild-type mice): no toxicity
- time until full length peptide was degraded [2]: ≤ 1 h

Compound: P42: 23aa peptide lying in the N-terminus (position 480–502 aa) of normal human Htt
- rescue of GFP-Htt^171aa-Q136 aggregation [3]: completely rescue
- eye degeneration of flies expressing hHtt exon1 with expanded polyQ ([4]; Drosophila model of HD): able to prevent eye degeneration
- effects on lifespan [4]: partial

Compound: CC[C@H](C)[C@H](NC(=O)[C@H](CC(=O)O)NC(=O)[C@H](Cc1c[nH]cn1)NC(=O)CNC(=O)[C@H](C)NC(=O)[C@H](CO)NC(=O)CNC(=O)[C@@H]1CCCN1C(=O)[C@@H](NC(=O)[C@H](CO)NC(=O)[C@@H](NC(=O)CNC(=O)[C@H](CO)NC(=O)[C@H](CO)NC(=O)[C@H](C)NC(=O)[C@H](C)NC(=O)c1ccc2c(c1)C(=O)OC21c2ccc(N(C)C)cc2Oc2cc(N(C)C)ccc21)C(C)C)[C@@H](C)O)C(=O)N[C@H](C(=O)N[C@H](C(=O)N[C@@H](CCC(=O)O)C(=O)N[C@@H](CCC(N)=O)C(=O)N1CCC[C@H]1C(=O)N[C@@H](CCCNC(=N)N)C(=O)N[C@@H](CO)C(=O)NCC(=O)NCC(=O)N[C@@H](Cc1ccc(O)cc1)C(=O)NCC(=O)N[C@@H](CCCNC(=N)N)C(=O)N[C@@H](CCCCN)C(=O)N[C@@H](CCCCN)C(=O)N[C@@H](CCCNC(=N)N)C(=O)N[C@@H](CCCNC(=N)N)C(=O)N[C@@H](CCC(N)=O)C(=O)N[C@@H](CCCNC(=N)N)C(=O)N[C@@H](CCCNC(=N)N)C(=O)N[C@@H](CCCNC(=N)N)C(=O)O)[C@@H](C)O)[C@@H](C)CC [TAMRA-P42-TAT] (5TAMRA-AASSGVSTPGSAGHDIITEQPRSGGYGRKKRRQRRR-OH; N-terminus and C-terminus assumed)
- uptake into cultured cells (HeLa cells [5]): taken up by almost all the cells
- IC50 on HeLa cell survival (MTT test) (HeLa cells [6]): could not be measured
- detection in brain 24 hrs after ICV injection ([7]; C57BL/6 J mice, ICV 5 μg or 1 μg, 24 hrs, data not shown, n = 12): still detected
- distribution in the striatum after ICV injection ([7]; wild-type C57BL/6 J mice, ICV, sacrificed 3 hours after injection, TAMRA signal, DARPP32/NeuN co-staining): largely diffusing within the neurons

Compound: CC[C@H](C)[C@H](NC(=O)[C@H](CC(=O)O)NC(=O)[C@H](Cc1c[nH]cn1)NC(=O)CNC(=O)[C@H](C)NC(=O)[C@H](CO)NC(=O)CN)C(=O)N[C@H](C(=O)N[C@H](C(=O)N[C@@H](CCC(=O)O)C(=O)N[C@@H](CCC(N)=O)C(=O)N1CCC[C@H]1C(=O)N[C@@H](CCCNC(=N)N)C(=O)N[C@@H](CO)C(=O)NCC(=O)NCC(=O)N[C@@H](Cc1ccc(O)cc1)C(=O)NCC(=O)O)[C@@H](C)O)[C@@H](C)CC [m/z 1801.84 derivative] (H-GSAGHDIITEQPRSGGYG-OH)
- presence in the brain after Aonys administration [1]: still present in the brain
